Results: patent US20230339886A1 (University of Florida Research Foundation, Incorporated, priority 2020, published 2023)
Where two headings read alike, the source gives them in different places.

Molecular target: T1, REV-ERBα LBD (human; residues 281-614 Δ324-422) (Homo sapiens, UniProt P20393, DEL324-422)
T1 construct: 6×Histag-REV-ERBα LBD (human; residues 281-614 Δ324-422); made in house; host or cells: Escherichia coli
Test: TR-FRET corepressor interaction assay (REV-ERBα LBD, FITC-SMRT peptide)
Format: biochemical
Procedure: TR-FRET corepressor interaction assay. The time-resolved fluorescence resonance energy transfer (TR-FRET) assay was performed in black low-volume 384-well plates (Greiner). […] Ligand stocks were prepared via serial dilution in DMSO, added to wells in triplicate, and plates were incubated at 4° C. for 2 h and read using a BioTek Synergy Neo multimode plate reader. The Tb donor was excited at 340 nm; its fluorescence emission was monitored at 495 nm, and the acceptor FITC emission was measured at 520 nm; and the TR-FRET ratio was calculated as the signal at 520 nm divided by the signal at 495 nm. Data were plotted using GraphPad Prism as TR-FRET ratio vs. ligand concentration and fit to sigmoidal dose response curve equation.

[1] = Table 2, read-out: REVERBα agonism (EC50 class, FRET assay)

T1 sequence (P20393 with tags, fused parts or gaps DEL324-422): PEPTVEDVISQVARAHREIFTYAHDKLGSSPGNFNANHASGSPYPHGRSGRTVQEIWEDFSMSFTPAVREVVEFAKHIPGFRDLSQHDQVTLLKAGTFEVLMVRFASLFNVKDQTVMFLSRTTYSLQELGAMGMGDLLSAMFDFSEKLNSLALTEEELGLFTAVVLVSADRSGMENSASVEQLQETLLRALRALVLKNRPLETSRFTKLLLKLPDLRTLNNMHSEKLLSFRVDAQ
T1 sequence (Q9Y618 2335-2356 partner limits assumed): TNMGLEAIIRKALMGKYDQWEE

| SMILES | EC50 [1] [nM] | EC50 (FITC-SMRT peptide, read-out: REVERBα agonism (EC50 class, FRET assay)) [nM] |
| --- | --- | --- |
| CC(C)(O)Cn1cc([C@H](NS(=O)(=O)C2CCC2)C(F)(F)F)c2ccc(-c3ccccc3C(F)(F)F)nc21 (racemic) [Example 412, N-[rac-(1S)-2,2,2-trifluoro-1-[1-(2-hydroxy-2-methyl-propyl)-6-[2-(trifluoromethyl)phenyl]pyrrolo[2,3-b]pyridin-3-yl]ethyl]cyclobutanesulfonamide] | 500 to 3000 |  |
| CC(C)(C)Cn1cc([C@H](NS(=O)(=O)C2CCC2)C(F)(F)F)c2cc(F)c(-c3cccnc3C#N)cc21 (racemic) [Example 529, (S)—N-(1-(6-(2-cyanopyridin-3-yl)-5-fluoro-1-neopentyl-1H-indol-3-yl)-2,2,2-trifluoroethyl)cyclobutanesulfonamide] |  | < 500 |
| CC(C)Cn1cc(CCN(C)S(=O)(=O)N(C)C)c2ccc(-c3ccncc3)cc21 [Compound 5] | < 500 |  |
| CCCn1cc(CCNS(=O)(=O)N(C)C)c2ccc(-c3ccncc3)cc21 [Compound 6] | < 500 |  |
| CN(C)S(=O)(=O)NCCc1cn(CC2CC2)c2cc(-c3ccncc3)ccc12 [Compound 7] | < 500 |  |
| CN(C)S(=O)(=O)NCCc1cn(CC2CCOC2)c2cc(-c3ccncc3)ccc12 (stereo not drawn) [Compound 9] | 500 to 3000 |  |
| CN(C)S(=O)(=O)NCCc1c[nH]c2cc(-c3ccncc3)ccc12 [Compound 40, dimethyl({2-[6-(pyridin-4-yl)-1H-indol-3-yl]ethyl}sulfamoyl)amine] | > 3000 |  |
| CC(=O)n1cc(CCNS(=O)(=O)N(C)C)c2ccc(-c3ccncc3)cc21 [Compound 42, 1-(3-{2-[(dimethylsulfamoyl)amino]ethyl}-6-(pyridin-4-yl)-1H-indol-1-yl)ethan-1-one] | > 3000 |  |
| CC(C)C(=O)n1cc(CCNS(=O)(=O)N(C)C)c2ccc(-c3ccncc3)cc21 [Compound 43, 1-(3-{2-[(dimethylsulfamoyl)amino]ethyl}-6-(pyridin-4-yl)-1H-indol-1-yl)-2-methylpropan-1-one] | < 500 |  |
| CC(C)Cc1cn(C2CCN(S(=O)(=O)C(C)C)C2)c2ccc(-c3ccncc3)cc12 (stereo not drawn) [Compound 44] | 500 to 3000 |  |
| Cc1noc(C)c1-c1ccc2c(CCNS(=O)(=O)N(C)C)cn(CC(C)C)c2c1 [Compound 64, ({2-[6-(3,5-dimethyl-1,2-oxazol-4-yl)-1-(2-methylpropyl)-1H-indol-3-yl]ethyl}sulfamoyl)dimethylamine] | > 3000 |  |
| CC(C)Cn1cc(CCNS(=O)(=O)N(C)C)c2ccc(-c3cnoc3)cc21 [Compound 65, dimethyl({2-[1-(2-methylpropyl)-6-(1,2-oxazol-4-yl)-1H-indol-3-yl]ethyl}sulfamoyl)amine] | 500 to 3000 |  |
| CC(C)Cn1cc(CCNS(=O)(=O)N(C)C)c2ccc(-c3ncco3)cc21 [Compound 67, dimethyl({2-[1-(2-methylpropyl)-6-(1,3-oxazol-2-yl)-1H-indol-3-yl]ethyl}sulfamoyl)amine] | 500 to 3000 |  |
| CC(C)Cn1cc(CCNS(=O)(=O)N(C)C)c2ccc(Nc3ccnn3C)cc21 [Compound 69, 3-{2-[(dimethylsulfamoyl)amino]ethyl}-N-(1-methyl-1H-pyrazol-5-yl)-1-(2-methylpropyl)-1H-indol-6-amine] | > 3000 |  |
| CC(C)Cn1cc(CCNS(=O)(=O)N(C)C)c2ccc(NC(=O)Cc3ccccc3)cc21 [Compound 70, N-(3-{2-[(dimethylsulfamoyl)amino]ethyl}-1-(2-methylpropyl)-1H-indol-6-yl)-2-phenylacetamide] | > 3000 |  |
| CC(C)Cn1cc(CCNS(=O)(=O)N(C)C)c2ccc(NC(=O)c3ccccc3)cc21 [Compound 71] | > 3000 |  |
| CC(C)Cn1cc(CCNS(=O)(=O)N(C)C)c2ccc(C#N)cc21 [Compound 96, 3-{2-[(dimethylsulfamoyl)amino]ethyl}-1-(2-methylpropyl)-1H-indole-6-carbonitrile] | < 500 |  |

| SMILES | EC50 [1] [nM] | EC50 (FITC-SMRT peptide, read-out: REVERBα agonism (EC50 class, FRET assay)) [nM] |
| --- | --- | --- |
| CC(C)Cn1cc(CCNS(=O)(=O)N(C)C)c2ccc(C3CCNCC3)cc21 [Compound 102, dimethyl({2-[1-(2-methylpropyl)-6-(piperidin-4-yl)-1H-indol-3-yl]ethyl}sulfamoyl)amine] | > 3000 |  |
| CC(=O)N1CCC(c2ccc3c(CCNS(=O)(=O)N(C)C)cn(CC(C)C)c3c2)CC1 [Compound 103, 1-[4-(3-{2-[(dimethylsulfamoyl)amino]ethyl}-1-(2-methylpropyl)-1H-indol-6-yl)piperidin-1-yl]ethan-1-one] | > 3000 |  |
| CC(C)Cn1cc(CCN(C)S(=O)(=O)N(C)C)c2ccc(C#N)cc21 [Compound 122, 3-{2-[(dimethylsulfamoyl)(methyl)amino]ethyl}-1-(2-methylpropyl)-1H-indole-6-carbonitrile] | > 3000 |  |
| CC(C)Cn1cc(CCN(C)S(=O)(=O)N(C)C)c2ccc(Br)cc21 [Compound 123, ({2-[6-bromo-1-(2-methylpropyl)-1H-indol-3-yl]ethyl}(methyl)sulfamoyl)dimethylamine] | 500 to 3000 |  |
| CN(C)S(=O)(=O)NCCc1cn(C(=O)C(C)(C)C)c2cc(-c3ccncc3)ccc12 [Compound 156, 1-(3-{2-[(dimethylsulfamoyl)amino]ethyl}-6-(pyridin-4-yl)-1H-indol-1-yl)-2,2dimethylpropan-1-one] | > 3000 |  |
| COc1ccc2cc(-c3ccc4c(c3)c(CC(C)(C)C)cn4CCNS(=O)(=O)C3CC3)ccc2c1 [Compound 220] | > 3000 |  |
| CC(C)Cn1cc(CC(=O)NS(=O)(=O)N(C)C)c2ccc(-c3ccncc3)cc21 [Compound 234] | > 3000 |  |
| Cc1c(CCNS(=O)(=O)N(C)C)c2ccc(-c3ccncc3)cc2n1CC(C)C [Compound 236] | 500 to 3000 |  |
| CC(C)Cn1cc(CNS(=O)(=O)N(C)C)c2ccc(-c3ccncc3)cc21 [Compound 239] | < 500 |  |
| CC(C)Cn1cc(CNS(=O)(=O)N2CCCC2)c2ccc(-c3ccncc3)cc21 [Compound 244] | < 500 |  |
| CC(C)Cn1cc(CNS(=O)(=O)CC(C)C)c2ccc(-c3ccncc3)cc21 [Compound 245] | < 500 |  |
| CC(C)Cn1cc(CN(C)S(=O)(=O)N(C)C)c2ccc(-c3ccncc3)cc21 [Compound 246] | 500 to 3000 |  |
| CC(C)Cn1cc(CCS(=O)(=O)C(C)C)c2ccc(-c3ccncc3)cc21 [Compound 248] | < 500 |  |
| CC(C)Cn1cc(C(C)CNS(=O)(=O)C(C)C)c2ccc(-c3ccncc3)cc21 (stereo not drawn) [Compound 251] | < 500 |  |
| CC(C)Cn1cc(C(C)CNS(=O)(=O)C(C)C)c2ccc(-c3ccccc3)cc21 (stereo not drawn) [Compound 254] | > 3000 |  |
| CC(C)Cn1cc(C(C)CNS(=O)(=O)N(C)C)c2ccc(-c3ccccc3)cc21 (stereo not drawn) [Compound 255] | 500 to 3000 |  |

Other lines, results leading:

| EC50 [1] [nM] | EC50 (FITC-SMRT peptide, read-out: REVERBα agonism (EC50 class, FRET assay)) [nM] | SMILES |
| --- | --- | --- |
| 500 to 3000 |  | CC(C)Cn1cc(CCNS(C)(=O)=O)c2ccc(-c3ccncc3)cc21 [Compound 3] |
| < 500 |  | CN(C)S(=O)(=O)NCCc1cn(Cc2ccccc2)c2cc(-c3ccncc3)ccc12 [Compound 8] |
| 500 to 3000 |  | COc1cc(-c2ccc3c(CCNS(=O)(=O)N(C)C)cn(CC(C)C)c3c2)ccn1 [Compound 19] |
| < 500 |  | CC(C)Cn1cc(CCNS(=O)(=O)N(C)C)c2ccc(-c3ccoc3)cc21 [Compound 66, ({2-[6-(furan-3-yl)-1-(2-methylpropyl)-1H-indol-3-yl]ethyl}sulfamoyl)dimethylamine] |
| < 500 |  | CC(C)Cn1cc(CCNS(=O)(=O)N(C)C)c2ccc(Br)cc21 [Compound 97, ({2-[6-bromo-1-(2-methylpropyl)-1H-indol-3-yl]ethyl}sulfamoyl)dimethylamine] |
| 500 to 3000 |  | CC(C)Cn1cc(CCNS(=O)(=O)N(C)C)c2ccc(C3CCN(C(=O)OC(C)(C)C)CC3)cc21 [Compound 101, tert-butyl 4-(3-{2-[(dimethylsulfamoyl)amino]ethyl}-1-(2-methylpropyl)-1H-indol-6-yl)piperidine-1-carboxylate] |
| 500 to 3000 |  | CC(C)CC(=O)n1cc(CCNS(=O)(=O)N(C)C)c2ccc(-c3ccncc3)cc21 [Compound 155, 1-(3-{2-[(dimethylsulfamoyl)amino]ethyl}-6-(pyridin-4-yl)-1H-indol-1-yl)-3-methylbutan-1-one] |
| 500 to 3000 |  | CCn1cc(CCNS(=O)(=O)N(C)C)c2ccc(Br)cc21 [Compound 157, {[2-(6-bromo-1-ethyl-1H-indol-3-yl)ethyl]sulfamoyl}dimethylamine] |
| < 500 |  | CC(C)Cn1cc(CCNS(=O)(=O)N(C)C)c2ccc(-c3ccncc3C(F)(F)F)cc21 [Compound 206, dimethyl({2-[1-(2-methylpropyl)-6-[3-(trifluoromethyl)pyridin-4-yl]-1H-indol-3-yl]ethyl}sulfamoyl)amine] |
| 500 to 3000 |  | CC(C)(C)Cc1cn(CCNS(=O)(=O)C2CC2)c2ccc(-c3ccc(F)c(F)c3)cc12 [Compound 226] |
| > 3000 |  | CC(C)Cn1cc(CCNS(=O)(=O)N(C)C)c2cc(-c3ccncc3)ccc21 [Compound 232] |
| > 3000 |  | CC(C)Cn1cc(CCCNS(=O)(=O)N(C)C)c2ccc(-c3ccncc3)cc21 [Compound 235] |
| 500 to 3000 |  | CN(C)S(=O)(=O)NCCc1cn(CCOC(C)(C)C)c2cc(-c3ccncc3)ccc12 [Compound 237] |
| 500 to 3000 |  | CC(C)Cn1cc(CNS(=O)(=O)N(C)C)c2ccc(-c3ccncc3)cc21 [Compound 238] |
| < 500 |  | CC(C)Cn1cc(CNS(=O)(=O)C2CCCC2)c2ccc(-c3ccncc3)cc21 [Compound 243] |
| 500 to 3000 |  | CC(C)Cn1cc(CCS(=O)(=O)C(C)C)c2ccc(Br)cc21 [Compound 247] |
| < 500 |  | CC(C)Cn1cc(CCS(=O)(=O)C(C)C)c2ccc(C3CCCCC3)cc21 [Compound 250] |
| 500 to 3000 |  | CC(C)Cn1cc(C(C)CNS(=O)(=O)C2CC2)c2ccc(-c3ccncc3)cc21 (stereo not drawn) [Compound 253] |
